Experimental data reported in patent US20170081300A1, “SYDNONE DERIVATIVES FOR CONJUGATION OF COMPOUNDS OF INTEREST” (UNIVERSITE DE STRASBOURG, priority 2014, published 2017).

Tests used:
Format in all cases: physicochemical
[1] = Kinetic study of the coupling reaction of sydnones with cyclic alkyne TMTH in PBS/DMSO (HPLC); details: PBS/DMSO (9:1), 100 μM sydnone
Method: (§1) The kinetics of the coupling reaction of different sydnones with two cyclic alkynes was studied, according to the following scheme.
(§2) Reactions of sydnones with BCN (or TMTH) were carried out in PBS/DMSO (9:1) mixtures at 100 μM concentration of sydnones and 150 μM concentration of BCN using the following procedure:
(§3) To 900 μL of phosphate buffered saline (PBS, 100 mM) was added 87.5 μL of DMSO, 10 μL of the solution of benzamide (internal standard, 100 mM in DMSO), 1 μL of the solution of sydnone (100 mM in DMSO) and 1.5 μL of the solution of BCN (100 mM in DMSO). The reaction mixture was injected in HPLC every 30 min and the conversion was followed by measuring the normalized sydnone peak area.
(§4) Second order reaction rate was determined by plotting ln([A]/[B])/([A]−[B]) versus time and analyzing by linear regression. Second order rate constant corresponds to the determined slope.

[2] = Kinetic study of the coupling reaction of sydnones with cyclic alkyne BCN in PBS/DMSO (HPLC); details: for K (BCN), second order kinetic constant: PBS/DMSO (9:1), 100 μM sydnone, 150 μM BCN
Method: as §1, §2, §3, §4

[3] = HPLC monitoring of the cycloaddition reaction with BCN in blood plasma; details: 100 μM sydnone, 150 μM BCN, after 1 hour
Method: Reactions of sydnone S1-2 with bicyclononyne BCN was carried out in blood plasma at 100 μM concentration of sydnone and 150 μM concentration of cyclooctyne BCN using the following procedure:
as §3, with “blood plasma were” for “phosphate buffered saline (PBS, 100 mM) was”, “added” for “added 87.5 μL of DMSO,”

## O=C(O)c1ccc(-[n+]2noc([O-])c2Cl)cc1 [Sydnone S1-2, 3-(4-carboxyphenyl)-4-chloro-1,2,3λ^5-oxadiazol-3-ylium-5-olate]
[1]
  K (TMTH), second order kinetic constant: 322 M⁻¹ s⁻¹
[2]; K(S1-1)/K(S0-3), K(S1-2)/K(S0-4)
  ratio of K constant (BCN) to K constant of the corresponding sydnone not substituted in position 4: 27
[2]
  K (BCN), second order kinetic constant: 1.593 ± 0.034 M⁻¹ s⁻¹
[3]
  conversion of sydnone in reaction with BCN: almost complete reaction

## O=C(O)c1ccc(-[n+]2noc([O-])c2Br)cc1 [Sydnone S2-2, 4-bromo-3-(4-carboxyphenyl)-1,2,3λ^5-oxadiazol-3-ylium-5-olate]
[1]
  K (TMTH), second order kinetic constant: 101 M⁻¹ s⁻¹
[2]
  K (BCN), second order kinetic constant: 0.798 ± 0.065 M⁻¹ s⁻¹

## O=C(O)c1ccc(-[n+]2cc([O-])on2)cc1 [Sydnone S0-4, 3-(4-carboxyphenyl)-1,2,3λ^5-oxadiazol-3-ylium-5-olate, reference compound]
[2]
  K (BCN), second order kinetic constant: 0.059 ± 0.001 M⁻¹ s⁻¹
